Laboratory results from PubChem BioAssay AID1918954 (Molecular Pharmacology Branch, DTP, NCI, 2023).
Values joined by “and” are separate entries in the source; they are usually repeats but may differ in a detail not shown here. Equal values may be shown once.

System: MDA-MB-468 complex spheroids with HUVEC/MSC, viability
Test: Anticancer human tumor MDA-MB-468 cell line growth inhibition;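 further: spheroids exposed to agents for seven days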;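 on viability, T/C: 100% = DMSO vehicle control viability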
Conditions: for viability, T/C: stronger effect = lower value; active means viability on the fitted dose curve at most 10% of control; inactive means the rest
Procedure, shortened: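 Complex spheroids of tumor cells with HUVEC and human MSCs, exposed to iadademstat combined with other agents. Each agent tested in half-log steps from near clinical Cmax (else 10 microM top), DMSO ≤0.25%.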

[1] = curve of first compound, second compound 0.1 µM
[2] = curve of first compound, second compound 0.316 µM
[3] = curve of first compound, second compound 1 µM
[4] = curve of first compound, second compound 3.16 µM
[5] = curve of first compound, second compound 10 µM
[6] = second compound 0.1 µM, first compound 0.00949 µM
[7] = second compound 0.1 µM, first compound 0.03 µM
[8] = second compound 0.1 µM, first compound 0.0949 µM
[9] = second compound 0.1 µM, first compound 0.3 µM
[10] = second compound 0.1 µM, first compound 0.949 µM
[11] = second compound 0.1 µM, first compound 3 µM
[12] = second compound 0.316 µM, first compound 0.00949 µM
[13] = second compound 0.316 µM, first compound 0.03 µM
[14] = second compound 0.316 µM, first compound 0.0949 µM
[15] = second compound 0.316 µM, first compound 0.3 µM
[16] = second compound 0.316 µM, first compound 0.949 µM
[17] = second compound 0.316 µM, first compound 3 µM
[18] = second compound 1 µM, first compound 0.00949 µM
[19] = second compound 1 µM, first compound 0.03 µM
[20] = second compound 1 µM, first compound 0.0949 µM
[21] = second compound 1 µM, first compound 0.3 µM
[22] = second compound 1 µM, first compound 0.949 µM
[23] = second compound 1 µM, first compound 3 µM
[24] = second compound 3.16 µM, first compound 0.00949 µM
[25] = second compound 3.16 µM, first compound 0.03 µM
[26] = second compound 3.16 µM, first compound 0.0949 µM
[27] = second compound 3.16 µM, first compound 0.3 µM
[28] = second compound 3.16 µM, first compound 0.949 µM
[29] = second compound 3.16 µM, first compound 3 µM
[30] = second compound 10 µM, first compound 0.00949 µM
[31] = second compound 10 µM, first compound 0.03 µM
[32] = second compound 10 µM, first compound 0.0949 µM
[33] = second compound 10 µM, first compound 0.3 µM
[34] = second compound 10 µM, first compound 0.949 µM
[35] = second compound 10 µM, first compound 3 µM

O=C(C=Cc1cccc(S(=O)(=O)Nc2ccccc2)c1)NO + NC1CC1c1ccc(-c2cccc(O)c2)cc1
0.0498 µM: IC50 [4]
0.0442 µM: IC50 [2]
0.0262 µM: IC50 [5]
0.0533 µM: IC50 [3]
inactive: viability, T/C [6] 88.7% | viability, T/C [7] 74.8% | viability, T/C [8] 25.8% | viability, T/C [9] 2.15% | viability, T/C [10] 0.17% | viability, T/C [11] 106% | viability, T/C [12] 96.3% | viability, T/C [13] 59.3% | viability, T/C [14] 23.1% | viability, T/C [15] 2.07% | viability, T/C [16] 0.17% | viability, T/C [17] 101% | viability, T/C [18] 92.9% | viability, T/C [19] 70.3% | viability, T/C [20] 25.5% | viability, T/C [21] 2.36% | viability, T/C [22] 0.14% | viability, T/C [23] 90.9% | viability, T/C [24] 83.1% | viability, T/C [25] 64.5% | viability, T/C [26] 23% | viability, T/C [27] 2.23% | viability, T/C [28] 0.16% | viability, T/C [29] 101% | viability, T/C [30] 67.7% | viability, T/C [31] 47.7% | viability, T/C [32] 17.7% | viability, T/C [33] 1.86% | viability, T/C [34] 0.19% | viability, T/C [35] 79.1%
0.0599 µM: IC50 [1]

CC(C)c1c(-c2ccccc2)nc2c(C#N)c[nH]n2c1=O
> 10 µM: IC50 (curve of compound)
inactive: viability, T/C (compound 0.0316 µM) 111% and 87.3% | viability, T/C (compound 0.1 µM) 101% and 89.5% | viability, T/C (compound 0.316 µM) 91.4% and 78.7% | viability, T/C (compound 1 µM) 101% and 96.7% | viability, T/C (compound 3.16 µM) 92% and 101% | viability, T/C (compound 10 µM) 72.1% and 88.9%

COc1ccc([C@@H](O)c2cc(-c3ncnc4cc(N5CCOCC5)ccc34)c(F)cc2Cl)nn1
inactive: viability, T/C (compound 0.0316 µM) 91.7% and 90.3% | viability, T/C (compound 0.1 µM) 86.8% and 90.4% | viability, T/C (compound 0.316 µM) 82.5% and 71.8% | viability, T/C (compound 1 µM) 58.3% and 51% | viability, T/C (compound 3.16 µM) 32.1% and 29.9%
14% and 6.59%: viability, T/C (compound 10 µM)
1.48 µM and 1.13 µM: IC50 (curve of compound)

COc1cc(C2c3cc4c(cc3C(OC3OC5COC(C)OC5C(O)C3O)C3COC(=O)C23)OCO4)cc(OC)c1O (stereo not given) + NC1CC1c1ccc(-c2cccc(O)c2)cc1
0.021 µM: IC50 [5]
0.0472 µM: IC50 [4]
0.0577 µM: IC50 [1]
inactive: viability, T/C [6] 88.3% | viability, T/C [7] 79.1% | viability, T/C [8] 27.5% | viability, T/C [12] 107% | viability, T/C [13] 69.9% | viability, T/C [14] 26% | viability, T/C [15] 11.5% | viability, T/C [18] 90% | viability, T/C [19] 64.2% | viability, T/C [20] 24.7% | viability, T/C [24] 89.8% | viability, T/C [25] 68.7% | viability, T/C [26] 21% | viability, T/C [30] 68.2% | viability, T/C [31] 42.8% | viability, T/C [32] 15.8%
0.0455 µM: IC50 [3]
0.0508 µM: IC50 [2]
active: viability, T/C [9] 13% | viability, T/C [10] 7.49% | viability, T/C [11] 3.87% | viability, T/C [16] 7.32% | viability, T/C [17] 3.63% | viability, T/C [21] 11.3% | viability, T/C [22] 6.82% | viability, T/C [23] 3.4% | viability, T/C [27] 11% | viability, T/C [28] 6.58% | viability, T/C [29] 3.35% | viability, T/C [33] 14.5% | viability, T/C [34] 8.05% | viability, T/C [35] 3.42%

CC1(C)CCC(CN2CCN(c3ccc(C(=O)NS(=O)(=O)c4ccc(NCC5CCOCC5)c([N+](=O)[O-])c4)c(Oc4cnc5[nH]ccc5c4)c3)CC2)=C(c2ccc(Cl)cc2)C1
6.6 µM and 1.88 µM: IC50 (curve of compound)
inactive: viability, T/C (compound 0.0316 µM) 93.2% and 90.6% | viability, T/C (compound 0.1 µM) 102% and 95.5% | viability, T/C (compound 0.316 µM) 101% and 85.6% | viability, T/C (compound 1 µM) 91.7% and 74% | viability, T/C (compound 3.16 µM) 70.5% and 30.9%

Nc1ccccc1NC(=O)c1ccc(CNC(=O)OCc2cccnc2)cc1 + NC1CC1c1ccc(-c2cccc(O)c2)cc1
active: viability, T/C [9] 2.33% | viability, T/C [10] 0.21% | viability, T/C [11] 0.17% | viability, T/C [15] 2.63% | viability, T/C [16] 0.2% | viability, T/C [17] 0.15% | viability, T/C [21] 2.4% | viability, T/C [22] 0.19% | viability, T/C [23] 0.13% | viability, T/C [27] 2.56% | viability, T/C [28] 0.16% | viability, T/C [29] 0.14% | viability, T/C [33] 2.72% | viability, T/C [34] 0.24% | viability, T/C [35] 0.2%
inactive: viability, T/C [6] 101% | viability, T/C [7] 90.5% | viability, T/C [8] 31.8% | viability, T/C [12] 90.7% | viability, T/C [13] 86.1% | viability, T/C [14] 28.6% | viability, T/C [18] 108% | viability, T/C [19] 78.6% | viability, T/C [20] 27.5% | viability, T/C [24] 92% | viability, T/C [25] 88% | viability, T/C [26] 25.7% | viability, T/C [30] 72.1% | viability, T/C [31] 68.1% | viability, T/C [32] 24.5%
0.0482 µM: IC50 [5]
0.0663 µM: IC50 [1]
0.0605 µM: IC50 [4]
0.0568 µM: IC50 [3]
0.0618 µM: IC50 [2]

CCN(c1cc(-c2ccc(CN3CCOCC3)cc2)cc(C(=O)NCc2c(C)cc(C)[nH]c2=O)c1C)C1CCOCC1 + NC1CCC(NC2CC2c2ccccc2)CC1
inactive: viability, T/C [6] 107% | viability, T/C [7] 96% | viability, T/C [8] 100% | viability, T/C [9] 88.1% | viability, T/C [10] 85.5% | viability, T/C [11] 83% | viability, T/C [12] 99.7% | viability, T/C [13] 102% | viability, T/C [14] 96.7% | viability, T/C [15] 102% | viability, T/C [16] 88.6% | viability, T/C [17] 91.9% | viability, T/C [18] 87% | viability, T/C [19] 92.3% | viability, T/C [20] 95.7% | viability, T/C [21] 87.4% | viability, T/C [22] 86% | viability, T/C [23] 74.9% | viability, T/C [24] 86.3% | viability, T/C [25] 76.8% | viability, T/C [26] 97.8% | viability, T/C [27] 99.9% | viability, T/C [28] 77.4% | viability, T/C [29] 88.5% | viability, T/C [30] 67.2% | viability, T/C [31] 72.2% | viability, T/C [32] 66.8% | viability, T/C [33] 74.5% | viability, T/C [34] 75.8% | viability, T/C [35] 63.4%
> 3 µM: IC50 [1] | IC50 [2] | IC50 [3] | IC50 [4] | IC50 [5]

CC(C)CC(NC(=O)CNC(=O)c1cc(Cl)ccc1Cl)B1OC(=O)CC(CC(=O)O)(C(=O)O)O1 (stereo not given) + NC1CCC(NC2CC2c2ccccc2)CC1
inactive: viability, T/C (second compound 0.1 µM, first compound 0.000316 µM) 110% | viability, T/C (second compound 0.1 µM, first compound 0.001 µM) 115% | viability, T/C (second compound 0.1 µM, first compound 0.00316 µM) 59.5% | viability, T/C (second compound 0.316 µM, first compound 0.000316 µM) 98.6% | viability, T/C (second compound 0.316 µM, first compound 0.001 µM) 99.2% | viability, T/C (second compound 0.316 µM, first compound 0.00316 µM) 60.4% | viability, T/C (second compound 1 µM, first compound 0.000316 µM) 89.9% | viability, T/C (second compound 1 µM, first compound 0.001 µM) 118% | viability, T/C (second compound 1 µM, first compound 0.00316 µM) 52.1% | viability, T/C (second compound 3.16 µM, first compound 0.000316 µM) 72.7% | viability, T/C (second compound 3.16 µM, first compound 0.001 µM) 101% | viability, T/C (second compound 3.16 µM, first compound 0.00316 µM) 67% | viability, T/C (second compound 10 µM, first compound 0.000316 µM) 80.6% | viability, T/C (second compound 10 µM, first compound 0.001 µM) 65.4% | viability, T/C (second compound 10 µM, first compound 0.00316 µM) 50.3%
active: viability, T/C (second compound 0.1 µM, first compound 0.01 µM) 8.34% | viability, T/C (second compound 0.1 µM, first compound 0.0316 µM) 1.37% | viability, T/C (second compound 0.1 µM, first compound 0.1 µM) 1.7% | viability, T/C (second compound 0.316 µM, first compound 0.01 µM) 7.32% | viability, T/C (second compound 0.316 µM, first compound 0.0316 µM) 2.63% | viability, T/C (second compound 0.316 µM, first compound 0.1 µM) 1.14% | viability, T/C (second compound 1 µM, first compound 0.01 µM) 9.33% | viability, T/C (second compound 1 µM, first compound 0.0316 µM) 1.32% | viability, T/C (second compound 1 µM, first compound 0.1 µM) 1.76% | viability, T/C (second compound 3.16 µM, first compound 0.01 µM) 7.42% | viability, T/C (second compound 3.16 µM, first compound 0.0316 µM) 1.53% | viability, T/C (second compound 3.16 µM, first compound 0.1 µM) 1.59% | viability, T/C (second compound 10 µM, first compound 0.01 µM) 4.74% | viability, T/C (second compound 10 µM, first compound 0.0316 µM) 2.13% | viability, T/C (second compound 10 µM, first compound 0.1 µM) 2.15%
0.00397 µM: IC50 [2]
0.0039 µM: IC50 [1]
0.0044 µM: IC50 [4]
0.00299 µM: IC50 [5]
0.00333 µM: IC50 [3]
